Data from publication PMC8615155 (Antioxidants, 2021).
Like-named read-outs stand apart in the source and are kept apart here.

Tests used:
[1] = test system: AGS cells; experiment: MTT cell viability AGS; format: cell-based, Human
Procedure: (§1) Human HeLa, A549, HepG2, SH-SY5Y, MCF7 and AGS cells were cultured in DMEM containing 10% FBS, respectively. HCT116 cells were cultured in McCoy’s 5A medium (Procell, Wuhan, China) containing 10% FBS. The cells were cultured in medium containing 100 IU/mL penicillin, 100 µg/mL streptomycin (1% antibiotics) and 25 nM selenite at 37 °C in a humidified incubator with 5% CO2 (Thermo Fisher Scientific, Waltham, MA, USA).
(§2) MTT assay was used to detect cell viability. In brief, cells were seeded in 96-well plates with 5000 cells per well and allowed to stick overnight. […] After treatment, the cell medium was carefully removed from the cultured cells and added with 100 µL fresh FBS-free medium containing 0.5 mg/mL MTT. The medium was incubated in an incubator for 4 h. Then, the medium was removed, and the formazan crystals formed were dissolved in 100 µL DMSO. The absorbance was measured at 570 nm, and 630 nm was set as the reference. The experiments were repeated four times.

[2] = test system: HCT116 cells; experiment: MTT cell viability HCT116; format: cell-based, Human; details: for IC50: read-out: IC50 values on cancer cell lines
Procedure: as §1, §2

[3] = test system: TrxR1; set-up: method as in PMID 21262347; details: cited from earlier work
[4] = target: T1, wild type TrxR1 (Rattus norvegicus, UniProt O89049); experiment: TrxR1 DTNB reduction assay
T1 sequence (O89049 1-499): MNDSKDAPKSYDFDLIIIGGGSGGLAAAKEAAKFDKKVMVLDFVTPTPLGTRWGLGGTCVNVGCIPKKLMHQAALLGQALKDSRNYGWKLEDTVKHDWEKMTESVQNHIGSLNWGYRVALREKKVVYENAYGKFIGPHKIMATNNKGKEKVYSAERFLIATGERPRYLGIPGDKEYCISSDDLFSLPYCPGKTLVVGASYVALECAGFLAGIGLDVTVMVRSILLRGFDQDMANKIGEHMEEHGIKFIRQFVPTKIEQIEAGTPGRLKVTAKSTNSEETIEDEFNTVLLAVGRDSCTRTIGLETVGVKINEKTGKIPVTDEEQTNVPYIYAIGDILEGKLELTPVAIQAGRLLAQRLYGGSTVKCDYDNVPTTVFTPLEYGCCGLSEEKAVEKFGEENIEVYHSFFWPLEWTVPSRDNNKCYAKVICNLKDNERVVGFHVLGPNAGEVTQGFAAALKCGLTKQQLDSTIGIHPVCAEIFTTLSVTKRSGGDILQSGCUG
Procedure: (§3) All food colorants were dissolved in DMSO to prepare a stock solution. […] 5,5′-dithiobis-2-nitrobenzoic acid (DTNB), 3-(4,5)-dimethylthiahiazo (-z-y1)-3,5-di-phenytetrazoliumromide (MTT) and ROS probe DCFH-DA were purchased from Sigma-Aldrich (St Louis, MI, USA). A 50 mM Tris-HCl containing 2 mM EDTA (pH 7.5) was used in all protein-based experiments, if not stated otherwise.
(§4) The enzymatic activities of TrxR1 and its various mutants were determined in parallel with DTNB and 9,10-panathrenequinone (9,10 PQ) as substrates [17]. In DTNB reduction assay, the working reaction mixtures contained 10 nM TrxR1, 2.5 mM DTNB and 300 µM NADPH in 50 mM Tris-HCl and 2 mM EDTA, pH 7.5. […] In the 9,10 PQ reduction assay, the working reaction mixtures contained 30 nM TrxR1, 30 µM 9,10 PQ and 200 µM NADPH, followed by NADPH oxidation at 340 nm for 20 min at room temperature, according to the linear region of the decrease curves (assuming ƐNADPH, 340 nm = 6200 M^−1 cm^−1).

[5] = target: T1, wild type TrxR1
Procedure: as §3, §4

[6] = target: T2, TrxR1 (Rattus norvegicus, UniProt O89049); experiment: NADPH oxidase activity of TrxR1 (juglone reduction); format: biochemical; details: 500 µM, 30 min in dark, juglone as substrate
T2 sequence (O89049 1-499): T1 sequence (O89049 1-499)
Procedure: NADPH oxidase activity of TrxR1 was measured by juglone reduction method. The final reaction mixture consisted of 30 nM TrxR1, 30 µM juglone (in DMSO) and 200 µM NADPH.

[7] = test system: SH-SY5Y cells; experiment: MTT cell viability SH-SY5Y; format: cell-based, Human; details: 48 h, read-out: IC50 values on cancer cell lines
Procedure: as §1, §2

[8] = test system: MCF7 cells; experiment: MTT cell viability MCF7; format: cell-based, Human; details: read-out: IC50 values on cancer cell lines
Procedure: as §1, §2

[9] = test system: HepG2 cells; experiment: MTT cell viability HepG2; format: cell-based, Human; details: read-out: IC50 values on cancer cell lines
Procedure: as §1, §2

[10] = test system: A549 cells; experiment: MTT cell viability A549; format: cell-based, Human; details: read-out: IC50 values on cancer cell lines
Procedure: as §1, §2

[11] = test system: HeLa cells; experiment: MTT cell viability HeLa; format: cell-based, Human; details: read-out: IC50 values on cancer cell lines
Procedure: as §1, §2

[12] = test system: HeLa cells; experiment: ROS generation with DCFH-DA; format: cell-based, Human; details: 12 h, up to 50 µM
Procedure: After removing the medium, 10 µM DCFH-DA was added and incubated at 37 °C in darkness for 30 min. The cells were then observed and photographed using a Leica inverted fluorescence microscopy (Leica, Germany).

[13] = target: T3, cellular TrxR in HeLa cells (Homo sapiens, UniProt Q16881); experiment: Cellular TrxR activity, end-point Trx-coupled insulin assay; format: cell-based; details: HeLa cells vs untreated controls
T3 construct: endogenous in cells; host or cells: HeLa
T3 sequence (Q16881 1-499 isoform Q16881-5): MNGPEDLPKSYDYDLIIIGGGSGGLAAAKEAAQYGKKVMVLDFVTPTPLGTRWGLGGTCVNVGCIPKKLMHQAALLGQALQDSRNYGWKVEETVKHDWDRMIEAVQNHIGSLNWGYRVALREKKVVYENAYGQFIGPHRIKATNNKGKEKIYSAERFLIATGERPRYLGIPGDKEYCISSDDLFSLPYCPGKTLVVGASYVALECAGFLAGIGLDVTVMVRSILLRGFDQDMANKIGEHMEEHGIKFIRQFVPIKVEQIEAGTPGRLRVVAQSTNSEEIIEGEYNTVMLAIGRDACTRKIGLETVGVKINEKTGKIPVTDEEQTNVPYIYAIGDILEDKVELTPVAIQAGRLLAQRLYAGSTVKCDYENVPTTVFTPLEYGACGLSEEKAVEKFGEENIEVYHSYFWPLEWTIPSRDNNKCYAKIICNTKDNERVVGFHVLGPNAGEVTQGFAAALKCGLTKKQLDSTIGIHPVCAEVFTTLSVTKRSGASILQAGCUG
Procedure: The cells were then collected and washed twice with ice-cold PBS. The total cell proteins were extracted with the RIPA buffer on ice for 30 min. The TrxR activities in the cell lysates were measured by the end-point Trx-coupled insulin assay and the protein concentration was determined by BCA protein assay kit (Sangon, Shanghai, China), using bovine serum albumin (BSA) as protein standard.

CC(=O)N[C@@H](CS)C(=O)O [NAC, N-acetyl-L-cysteine, reference compound]
Effect of co-treatment on chlorophyllin cytotoxicity ([1]; 100 µM or 500 µM NAC, 24 h co-treatment): protect cell from chlorophyllin | Effect of co-treatment on chlorophyllin cytotoxicity ([2]; HCT116, 100 µM or 500 µM NAC, 24 h co-treatment): protect cell from chlorophyllin

C=CC1=C(C)c2cc3[nH]c(cc4nc(cc5[nH]c(cc1n2)c(C)c5CCC(=O)O)C(CCC(=O)O)=C4C)c(C)c3C=C [PpIX]
Kinact in TrxR1 mediated Trx-coupled insulin reduction [3]: 5 M⁻¹ s⁻¹ | Ki ([3]; read-out: apparent Ki on TrxR1's Trx reduction): 2.7 µM

CC(=O)OC[C@H]1O[C@@H]([S-])[C@H](OC(C)=O)[C@@H](OC(C)=O)[C@@H]1OC(C)=O.CCP(CC)CC.[Au+] [auranofin, reference compound]
Effect of pre-treatment on sensitivity of HCT116 cells to chlorophyllin ([2]; auranofin 2.5 h pre-treatment, then chlorophyllin): increasing the sensitivity

CC1=C[C@H](O)CC(C)(C)[C@H]1/C=C/C(C)=C/C=C/C(C)=C/C=C/C=C(C)/C=C/C=C(C)/C=C/C1=C(C)C[C@@H](O)CC1(C)C [lutein]
IC50 [4]: 306 µM | Time dependence of TrxR1 inhibition [5]: time-dependent manner | Inhibition of NADPH oxidation activity of TrxR1 [6]: no inhibition

Sodium copper chlorophyll [chlorophyllin]
IC50 ([1]; 48 h, read-out: IC50 values on cancer cell lines): 49.6 ± 24.7 µM | IC50 [7]: 31.7 ± 6.7 µM | IC50 ([2]; HCT116, 24 h): 43.5 ± 2.6 µM | IC50 ([2]; HCT116, 48 h): 20.2 ± 0.8 µM | IC50 ([8]; MCF7, 24 h): 30.1 ± 7.1 µM | IC50 ([8]; MCF7, 48 h): 6.9 ± 1.1 µM | IC50 ([9]; HepG2, 24 h): 36.8 ± 11.2 µM | IC50 ([9]; HepG2, 48 h): 10.2 ± 3 µM | IC50 ([10]; A549, 24 h): 40.7 ± 3.9 µM | IC50 ([10]; A549, 48 h): 10.3 ± 1.4 µM | IC50 ([11]; 24 h): 47.9 ± 13.5 µM | IC50 ([11]; 48 h): 10.4 ± 4.3 µM | Fluorescent signals of ROS probe DCFH-DA [12]: much higher | Inhibition of cellular TrxR1 activity [13]: remarkable inhibition

hemin
Kinact in TrxR1 mediated Trx-coupled insulin reduction [3]: 4.33 M⁻¹ s⁻¹
